Measurements published in patent publication US20240116889A1, “ANTIVIRAL COMPOUNDS AND METHODS” (priority 2019, published 2024).

Tests used:
[1] = test system: DDIT3, HSPA5 and HSP90B1; assay type: cell-based, pig; details: NPTr cells, porcine myoblasts and NHBE cells; non-toxic TG, 30 min
[2] = test system: SARS-CoV-2; assay: SARS-CoV-2 replication in Calu-3 cells (RT-qPCR of media); assay type: cell-based
[3] = test system: pdm H1N1 virus; assay type: cell-based, influenza A virus (A/California/07/2009); details: NPTr cells; 0.5 μM TG 30 min; […]
[4] = Tolerability of TG given to mice by oral gavage; details: 1 mg/kg
[5] = test system: USSR H1N1 virus; assay type: cell-based, influenza A virus (A/USSR/77); details: PTECs; 0.1 μM TG for 30 min
[6] = test system: PR8 H1N1 virus (A/Puerto Rico/8/1934); assay type: in vivo, BALB/c mice
[7] = test system: HEp2 cells; assay: Cell viability of HEp2 cells (CellTiter-Glo); assay type: cell-based, human; details: HEp-2 cells
Protocol: Spun supernatants were collected to infect HEp2 cells for 24 h for immuno-detection of RSV. TG doses used to prime HEp2 cells were non-toxic. 30 min TG treated cells were rinsed, cultured overnight and subjected to cell viability assays (CellTiter-Glo® Luminescent Cell Viability Assay kit, Promega. Results are shown in FIG. 22.

[8] = test system: SARS-CoV-2; assay: SARS-CoV-2 replication in Vero E6 cells (RT-qPCR of media); assay type: cell-based
[9] = test system: A549 cells; assay: Cell viability of A549 cells (CellTiter-Glo 2.0); assay type: cell-based, human; details: RDV continuous, TG 30 min, overnight
Protocol: (A) A549 cells were primed with indicated TG, 0.3 μM RDV or DMSO control for 30 min, washed twice with PBS and infected with 0.01 MOI of CoV OC43 for 2 h, after which cells were washed again with PBS and incubated in fresh infection media (OptiMEM supplemented with 0.1 μg/ml TPCK-trypsin for TG primed cells, or fresh media in the continuous presence of RDV. At 24, 48 and 72 hpi, viral RNA extraction was performed on collected supernatants followed by one-step reverse transcription qPCR to detect the relative copy number of hCoV OC43 replicase polyprotein lab RNA, based on relative Ct method. Indicated significance relative to corresponding RDV-treated cells based on 2-way ANOVA Tukey's multiple comparisons test. (B) As in (A), A549 cells were primed continuously with RDV, or for 30 min with indicated TG or DMSO, washed, cultured overnight and subjected to cell viability assay (CellTiter-Glo 2.0 Cell Viability Assay, Promega).

## C/C=C(/C)C(=O)O[C@H]1C(C)=C2[C@H]([C@@H]1OC(=O)CCCCCCC)[C@@](C)(OC(C)=O)C[C@H](OC(=O)CCC)[C@@]1(O)[C@H]2OC(=O)[C@@]1(C)O [TG, thapsigargin]
[1]
  expression of ER stress associated genes: consistently elevated ER stress associated genes
[2]
  SARS-CoV-2, separate infection and co-infection with pdm 2009 H1N1: blocked
  SARS-CoV-2 replication, post-infection priming: just as effective in virus inhibition as pre-infection TG priming
[2]; Calu-3 cells, […], HC primed and continuously present
  SARS-CoV-2 replication: highly inhibitory
[3]
  virus production, TG before vs 6 h after infection: comparable reduction in virus production
[4]
  clinical adverse effects: no detectable clinical adverse effects
[5]
  duration of the antiviral state after TG exposure: at least 24 h
[6]; TG 30 ng by gavage daily
  body weight of surviving treated mice: progressive weight gain from 9 dpi
[6]; TG 30 ng by gavage daily, […]
  PR8 virus loads in lungs vs control mice: significantly lower
  gross lung pathology: more localised to the vicinity of virus entry site
[6]; mouse, in vivo
  survival of infected mice: 40%
[7]
  CC50: 90 µM
[8]
  SARS-CoV-2 replication: lack of effectiveness
[9]
  cell viability: no adverse effect on cell viability
